Measured values from patent US9820968B2, “Anti-leukemic agent useful for inducing differentiation in myeloid leukemia cells” (Council of Scientific and Industrial Research, priority 2013, dated 2017).
Read-outs that look alike come from different tables or passages of the source.

Legend:
[1] = system: HL60 cells; test: FACS flow cytometry for cd11b in HL60 cells (differentiation control); type: cell-based; details: HL60, 1 uM ATRA, 72 hrs
Experimental: (§1) K562 cells were treated with 1 μM (Subapoptotic dose) and 7.5 μM ORM (Apoptotic dose) for 24 h and 48 hrs. Post 24 h and 48 h treatment, cells were analyzed in FACS-flow cytometer for the presence of myeloid differentiation marker cd11b (FIG. 2). In parallel, HL60 cells were also treated with 1uM All-Trans-Retinoic Acid (ATRA) for 72 hrs which served as control for induction of differentiation. […] Isotype IgG-PE antibody served as negative control.

[2] = system: myeloid leukemia cells (U937, HL60, K562); test: MTT cell viability assay, myeloid leukemia cells; type: cell-based; details: leukemic cells (U937, HL60, K562), read-out: 50% growth inhibitory concentration (IC50)
Experimental: FIG. 1: ORM induces cell toxicity in myeloid leukemia cells: (a) Chemical structure of ormeloxifene. […] Assay was performed on 3 replicates for each treatment and repeated twice.
(§2) 2. MTT assay: Post 6 h synchronization, 1×10^4 cells per well were incubated at 37° C. in 96-well plastic plates with test drugs containing 10% FBS in an environment of 5% humified CO2. After 48 hrs, cell viability was assessed by the ability of metabolically active cells to reduce tetrazolium salt […] to coloured formazan compounds. The absorbance of the samples was measured with a specific enzyme-linked immunosorbent assay (ELISA) reader at 560 nm.
(§3) To calculate 50% growth inhibitory concentration (IC50) of ormeloxifene, various myeloid leukemia cells (U937, HL60, K562) and HEK293T as control were assayed with different doses of ormeloxifene for cell viability in MTT Assay. […] Various apoptosis assays were performed in myeloid leukemia cells upon treatment with ormeloxifene that induces G0-G1 phase growth arrest and caspase mediated apoptosis in myeloid leukemia via ERK activation.

[3] = system: HEK293T; test: MTT cell viability assay, HEK293T control; type: cell-based; details: Homo sapiens, HEK-293T, 293T control cells, 48 hrs, read-out: 50% growth inhibitory concentration (IC50)
Experimental: as §2, §3

[4] = system: K562 cells; test: FACS flow cytometry for cd11b in K562 cells; type: cell-based; details: 24 and 48 h
Experimental: (§4) 7. FACS analysis: Cells were treated with 1 uM ORM for 24 h and 48 h. Then they were washed with 1×PBS and resuspended in antibody solution along with their respective IgG isotype control for 15-20 min as per manufacturer's protocol. Cells were washed once with PBS and were resuspended in 500 ul of PBS. After this flow cytometry was done for PI labeled cells for cd11b and cd114 differentiation markers (BD Biosciences).
as §1

[5] = system: K562 cells; test: Giemsa staining morphology, K562 cells; type: cell-based
Experimental: (§5) 3. Giemsa staining: Giemsa stain is used to differentiate nuclear and cytoplasmic morphology of blood cells. After induction with 1 uM ORM for 12 days cells were cytospun on slides at 800 rpm for 5 min and were air dried. Cells were stained with Giemsa stain (Sigma) as per manufacturer's protocol. Cells were visualized microscopically for the morphological changes.
To further corroborate the differentiation inducing potential of ORM, K562 cells were again treated with 1.0 uM ORM and vehicle for 12 days followed by cytospin and staining with Giemsa for assessment of morphological changes. […] It is noteworthy to mention here that at higher doses (5 uM to 7.5 uM) there is early onset of myeloid differentiation (72 h for 5 uM and 24,48 h for 7.5 uM) with reduced no. of cells which is likely due to apoptotic effects of ORM at higher dose. In contrary, at lower doses (1 uM) differentiation is observed after longer duration (6-15 days) with quite reduced apoptotic effect.

[6] = system: K562 cells; test: NBT reduction assay, K562 cells; type: cell-based; details: K562, 7.5 uM ORM 24 h and 48 hrs, 1 uM 6 days
Experimental: 4. NBT assay: The NBT Assay relies on the accumulation of blue black formazan precipitate. The membrane permeable, water soluble, yellow NBT is reduced to blue black formazan by O^−2, which is generated by activated neutrophils/phagocytes, typically by PMA. PMA activates NADPH oxidase by enhancing protein kinase C (PKC) and thus stimulates production of ROS (reactive oxygen species). After induction with 7.5 uM ORM for 24 h and 48 hr and with 1 uM ORM for 6 days cells were incubated in NBT solution for 15 min. at 37° C. Cells were washed with PBS and were resuspended in 500 ul PBS and cytospun on slides and stained with safranin O for 1 min. Number of cells showing blue-purple colouration were counted under microscope.
In order to further confirm the ORM induced differentiation in myeloid leukemia cells, Nitro Blue Tetrazolium (NBT) reduction assay is carried out which is a biochemical assay wherein activated granulocytes can reduce NBT to insoluble purple blue colour precipitates. Further, because ORM induces apoptosis at 7.5 uM in K562 cells; we treated K562 cells with 7.5 uM for 24 h and 48 hrs and 1 uM doses for longer duration, 6 days. Cells were subjected for NBT reduction analysis. […] This further confirmed differentiation inducing potential of ORM.

[7] = system: K562 cells; test: ROS generation by flow cytometry (DCF-DA), K562 cells; type: cell-based; details: K562, 1 uM ORM
Experimental: FIG. 5: ORM at a dose of 1 uM induces ROS generation: A property of activated neutrophils: Flow cytometry analysis was performed for the ROS generation in K562 cells after treatment with 1 uM ORM for 24 h and 48 h. Cells were labeled with DCF-DA dye and fluorescence was measured.
Furthermore, ORM induces granulocytic differentiation in K562 cells, it should lead to terminal differentiation of these cells to activated neutrophils. To substantiate further the induction of granulocytic differentiation and neutrophil formation, we measured the ROS generation, which is a property of activated neutrophils by FACS flow cytometer.

[8] = system: K562 cells; test: Real time and semi quantitative PCR of differentiation markers, K562 cells; type: cell-based
Experimental: 5. Quantitative PCR (Real Time) and semi quantitative PCR Analysis: After induction of cells with ORM for indicated time points cells were harvested and RNA was isolated using Trizol reagent. Trizol was added to 1×10^6 cells for 5 min at room temp. Lysed cells were collected in micro centrifuge tubes and shaken vigorously for 15 sec, and incubated for 3 min at RT. 200 μl of chloroform was added to each sample and incubated yet again for 5 min at RT. Cells were centrifuged at 15,000 rpm for 15 min at 4° C. Supernatant was collected in fresh tube; 1 ml isopropanol was added and incubated for 10 min at RT. Pellet was washed once with 70% ethanol and RNA concentration was quantified. Further, RNA was retro-transcribed into cDNA and subsequently used for quantitative PCR analysis on Roche Light Cycler 480 using SYBR green master mix from Applied Biosystems. Statistical analysis was performed using ΔΔCT method. Reverse transcriptase PCR was done to check the mRNA level expression of GCSFr qualitatively. RT-PCR analysis was performed using standardized PCR protocol on BioRad C1000 Thermal Cycler.

[9] = system: primary cells isolated from CML patients; test: FACS for cd11b and cd114 in primary mononuclear cells from CML patients; type: cell-based, human; details: CML patient mononuclear cells, 1 uM ORM, 24 and 48 hr
Experimental: FIG. 6: ORM induces myeloid differentiation in primary cells isolated from CML patients PBMCs were isolated from patient samples and were analyzed by FACS for cd11b positive cells.
6. PBMC separation from patient sample: 10 ml peripheral blood was collected by venipuncture heparin-containing 20 ml vials. Peripheral blood mononuclear cells were isolated using density gradient centrifugation with Ficoll-Paque (1.077 g/ml). Peripheral blood was mixed in 1:1 v/v of MACS buffer and was fractionated through Ficoll-Paque. Mononuclear cells were collected from the interface, washed twice in MACS buffer and resuspended in RPMI 1640 at 37° C. in the humidified atmosphere of 5% CO2.
as §4, with “After this flow cytometry was done for PI labeled cells for cd11b and cd114 differentiation markers (BD Biosciences).” left out
Although recent studies using differentiation therapies in oncology have been successful for acute promyelocytic leukemia (APL) with the use of all-trans retinoic acid (ATRA) (S. Waxman, Leukemia, 2000, 14(3):491-496), little is known about exact mechanisms of differentiation. […] Cells were treated with 1 uM ORM and were analyzed for expression of cd11b and cd114 surface markers after 24 and 48 hr.

[10] = system: HL60 cells; test: Morphology after long ORM treatment, HL60 cells; type: cell-based; details: HL60, 1 uM ORM, 12 and 15 days
Experimental: (§6) FIG. 7: ORM at 1 uM dose induces differentiation like morphology both in HL60 and U937 cells: (a) HL60 and (b) U937 cells were treated with 1 uM ORM for 12 and 15 days and there was change in the morphology of cells by decrease in the nuclear and cytoplasmic ratio and formation of multilobed nuclei which is typical for neutrophilic differentiation.
as §5
(§7) Profound granulocytic differentiation inducing property of ormeloxifene in K562 prompted us to investigate if ORM can also induce such differentiation in other myeloid leukemia cell lines. So we further chose HL60 and U937, a promyelocyte and myelomonocyte leukemia cell line. These cells differentiate to granulocyte lineage upon induction with all trans-retinoic acid (ATRA) and represent a very good model cell line for such differentiation assays. These cells were treated with 1 uM ORM for longer duration of 12 and 15 days followed by assessment of granulocytic/neutrophil like morphology.

[11] = system: U937 cells; test: Morphology after long ORM treatment, U937 cells; type: cell-based; details: U937, 1 uM ORM, 12 and 15 days
Experimental: as §6, §5, §7

[12] = system: HL60, U937 and K562 cells; details: P. Pal et al., Proteomics 2011, read-out: IC50 inducing apoptosis; cited from earlier work
[13] = system: advanced breast cancer; details: cited from earlier work
[14] = system: Salmonella; details: Giri et al., Mutagenesis 1999; cited from earlier work
[15] = K562, 1 uM ORM, 24 and 48 h, real time PCR

Compound: CC1=C(/C=C/C(C)=C/C=C/C(C)=C/C(=O)O)C(C)(C)CCC1 [ATRA, All-Trans-Retinoic Acid]
- cd11b early myeloid differentiation marker [1]: increased

Compound: COc1ccc2c(c1)OC(C)(C)C(c1ccccc1)C2c1ccc(OCCN2CCCC2)cc1 (stereo not drawn) [ORM, 3,4-trans-2,2-dimethyl-3-phenyl-4-p-(beta-pyrrolidinoethoxy)phenyl-7-methoxychroman]
- IC50 ([2]; 48 h): ~7.5 µM
- IC50 ([2]; 48 hrs): ~7 µM
- IC50 [3]: 25 µM
- cells expressing cd11b marker ([4]; K562, 1.0 uM ORM): increased percentage of cells expressing CD11b markers
- cells expressing cd11b marker ([4]; K562, 7.5 uM ORM): Reduced number of cd11b expressing cells
- morphological changes (Giemsa) ([5]; K562, 1.0 uM ORM, 12 days): differentiated cells having neutrophil like morphology were observed
- morphological changes (Giemsa) ([5]; K562, 5 uM ORM, 72 hrs): neutrophil like morphological changes
- NBT reduction [6]: dramatic increase in NBT reduction
- ROS generation [7]: Significant upregulation in ROS generation
- C/EBP epsilon mRNA expression [8, 15]: increased mRNA expression
- C/EBPalpha mRNA expression [8, 15]: increased mRNA expression
- GCSFr mRNA expression [8, 15]: increased mRNA expression
- cd11b mRNA expression [8, 15]: increased mRNA expression
- GCSFr mRNA expression ([8]; K562, 7.5 uM ORM, 24 h and 48 h, quantitative and semi quantitative PCR): modest upregulation
- level of GCSFr ([8]; K562, Reverse transcriptase-PCR (FIG. 4f, g)): marked increase
- expression of cd11b surface marker [9]: significant upregulation
- expression of cd114 surface marker [9]: significant upregulation
- granulocytic/neutrophil like morphology [10]: large number of cells with multilobed nucleus
- granulocytic/neutrophil like morphology [11]: large number of cells with multilobed nucleus
- IC50 [12]: 7.5 µM
- overall response rate ([13]; both male and female cases (4 male, 75 female)): 40.5%
- overall response rate ([13]; female patients): 38.7%
- mutagenic effects of DMBA, CP, MMC and EMS [14]: can reduce the mutagenic effects
